Experimental data taken from patent US20240344145A1, “PHARMACOGENOMICS SCORE TO MAKE DECISIONS ON THERAPY AUGMENTATION IN AML” (University of Florida Research Foundation, Incorporated, priority 2021, published 2024).

Tested on: ara-C metabolic pathway genes
Test: Association of ara-C pathway SNP genotypes with MRD1, EFS and OS in AML02 (logistic regression and Cox models; also within LDAC and HDAC arms)
Parameters: species or system human
Conditions: within arm of AML02
Description: Genomic DNA from patients enrolled in the multi-site St. Jude AML02 trial was genotyped for 155 SNPs in 16 genes of relevance to ara-C pharmacology using sequenom iPlex platform that uses MALDI-TOF based chemistry at University of Minnesota, Biomedical Genomics Center. SNPs were selected based on previously reported studies. For SNPs lacking literature on genetic variation, SNPs were selected to capture LD blocks (European and African ancestry) on a gene. Of 155 SNPs, 1 SNP was excluded due to low call rate (<90%), 47 SNPs were excluded due to minimum allele frequency of less than 5%, 11 SNPs were excluded due to high LD (r^2>0.9) with other SNPs; two SNPs were excluded because of deviation from Hardy-Weinberg equilibrium. Genotype for the COG-AAML0531 cohort for the selected SNPs was obtained using sequenom platform or TaqMan genotyping assays, and for a few SNPs was extracted from the data available on Illumina 2.5 Omni array. Genotype calls from multiple platforms were confirmed across multiple samples randomly collected from the cohort.
SNP genotype groups in three different modes of inheritance (additive, dominant, and recessive) were tested for association with MRD1 using logistic regression models. Odds ratio (OR) and 95% confidence interval (CI) were calculated for each test. SNPs with association P-value<0.05 were considered significant. Cox-proportional hazard models were used to evaluate association of genotype groups with EFS or OS. Hazard ratio (HR) and 95% CI were calculated for each test. p-value<0.05 was considered statistically significant. Given initial risk group assignments are well-established prognostic factors associated with outcome, outcome association analysis of SNPs with and without adjusting for risk group was also performed to identify SNPs that are associated with outcome independent of risk group.
SNPs with p<0.15 in risk-adjusted univariate evaluation with clinical endpoints (MRD1, EFS, and OS) were tested for all possible combinations with a maximum of three SNPs per model in multivariable logistic regression models for association with MRD1 and Cox-proportional hazard models for association with EFS and OS. Analysis for up to 3 SNP combinations was restricted due to computational challenges as increasing the maximum number of SNPs per model drastically increases the number of models as 1000 permutations were run for each model. Models were ordered according to their Bayesian Information Criterion (BIC) and weight in favor of each model. One thousand permutation tests were performed for each model to determine statistical significance. The six unique SNPs from the most significant models for EFS and MRD1 were included in the development of the ACS10 score as described in the results section.
The multicenter AML02 clinical trial randomly assigned subjects to receive low dose ara-C (LDAC: 100 mg/m^2; n=91 patients) or high dose ara-C(HDAC: 3 g/m^2; n=75 patients) in combination with daunorubicin and etoposide as the first course of chemotherapy as described above in patient cohort section. Thus, the association of SNPs with outcome within each arm separately was also explored (Table 5).

[1] = rs4917384 (NT5C2, WT C, VAR T), MOI D
[2] = rs4980345 (SLC28A1, WT G, VAR A), MOI A
[3] = rs6552622 (DCTD, WT C, VAR G), MOI D
[4] = rs6742272 (RRM2, WT C, VAR G), MOI A
[5] = rs6834938 (DCTD, WT C, VAR T), MOI R
[6] = rs6946062 (NT5C3, WT T, VAR C), MOI D
[7] = rs7533657 (CTPS1, WT C, VAR T), MOI R
[8] = rs7543016 (CMPK1, WT C, VAR G), MOI R
[9] = rs7776847 (NT5C3, WT G, VAR A), MOI A
[10] = rs7874528 (SLC28A3, WT G, VAR T), MOI D
[11] = rs10252880 (NT5C3, WT G, VAR C), MOI A
[12] = rs10767827 (RRM1, WT G, VAR T), MOI D
[13] = rs10786736 (NT5C2, WT G, VAR C), MOI D
[14] = rs10916819 (CDA, WT A, VAR G), MOI D
[15] = rs11140525 (SLC28A3, WT G, VAR A), MOI A
[16] = rs11191558 (NT5C2, WT G, VAR A), MOI D
[17] = rs11737887 (DCTD, WT T, VAR C), MOI A
[18] = rs12554292 (SLC28A3, WT C, VAR T), MOI D
[19] = rs12806698 (RRM1, WT C, VAR A), MOI D
[20] = rs17103168 (CMPK1, WT A, VAR G), MOI D

## Nc1ccn([C@@H]2O[C@H](CO)[C@@H](O)[C@@H]2O)c(=O)n1 [HDAC, cytarabine]
[1]
  EFS HR (95% CI): 0.74 (0.51-1.08)
  MRD1 OR (95% CI): 0.73 (0.44-1.2)
  OS HR (95% CI): 0.61 (0.38-0.98)
[2]
  EFS HR (95% CI): 0.94 (0.47-1.87)
  MRD1 OR (95% CI): 0.55 (0.19-1.62)
  OS HR (95% CI): 1.3 (0.64-2.64)
[3]
  EFS HR (95% CI): 1.71 (1.15-2.53)
  MRD1 OR (95% CI): 1.06 (0.56-1.99)
  OS HR (95% CI): 1.84 (1.19-2.85)
[4]
  EFS HR (95% CI): 1.09 (0.68-1.76)
  MRD1 OR (95% CI): 0.86 (0.44-1.68)
  OS HR (95% CI): 1.09 (0.62-1.92)
[5]
  EFS HR (95% CI): 0.7 (0.34-1.44)
  MRD1 OR (95% CI): 1.08 (0.49-2.38)
  OS HR (95% CI): 0.86 (0.42-1.79)
[6]
  EFS HR (95% CI): 1.13 (0.78-1.63)
  MRD1 OR (95% CI): 0.96 (0.59-1.56)
  OS HR (95% CI): 1.47 (0.92-2.35)
[7]
  EFS HR (95% CI): 1.76 (1.14-2.7)
  MRD1 OR (95% CI): 1.31 (0.67-2.57)
  OS HR (95% CI): 1.97 (1.22-3.18)
[8]
  EFS HR (95% CI): 0.69 (0.38-1.25)
  MRD1 OR (95% CI): 1.29 (0.69-2.42)
  OS HR (95% CI): 0.65 (0.32-1.35)
[9]
  EFS HR (95% CI): 0.83 (0.46-1.5)
  MRD1 OR (95% CI): 1.23 (0.57-2.65)
  OS HR (95% CI): 0.71 (0.34-1.47)
[10]
  EFS HR (95% CI): 1.24 (0.85-1.81)
  MRD1 OR (95% CI): 0.91 (0.52-1.61)
  OS HR (95% CI): 1.41 (0.91-2.17)
[11]
  EFS HR (95% CI): 0.99 (0.62-1.57)
  MRD1 OR (95% CI): 1.18 (0.62-2.27)
  OS HR (95% CI): 0.74 (0.42-1.32)
[12]
  EFS HR (95% CI): 1.03 (0.71-1.49)
  MRD1 OR (95% CI): 0.55 (0.31-0.97)
  OS HR (95% CI): 1.04 (0.68-1.61)
[13]
  EFS HR (95% CI): 0.92 (0.6-1.4)
  MRD1 OR (95% CI): 0.9 (0.51-1.59)
  OS HR (95% CI): 0.92 (0.56-1.52)
[14]
  EFS HR (95% CI): 1.08 (0.75-1.56)
  MRD1 OR (95% CI): 1.87 (1.09-3.21)
  OS HR (95% CI): 1.33 (0.83-2.12)
[15]
  EFS HR (95% CI): 0.73 (0.44-1.21)
  MRD1 OR (95% CI): 0.44 (0.21-0.94)
  OS HR (95% CI): 0.87 (0.49-1.56)
[16]
  EFS HR (95% CI): 0.87 (0.56-1.37)
  MRD1 OR (95% CI): 0.93 (0.53-1.66)
  OS HR (95% CI): 0.84 (0.48-1.44)
[17]
  EFS HR (95% CI): 0.96 (0.49-1.89)
  MRD1 OR (95% CI): 2.74 (1.06-7.06)
  OS HR (95% CI): 0.95 (0.43-2.12)
[18]
  EFS HR (95% CI): 1.15 (0.75-1.76)
  MRD1 OR (95% CI): 1.92 (1.04-3.56)
  OS HR (95% CI): 1.4 (0.87-2.24)
[19]
  EFS HR (95% CI): 0.64 (0.43-0.96)
  MRD1 OR (95% CI): 0.89 (0.54-1.45)
  OS HR (95% CI): 0.62 (0.37-1.02)
[20]
  EFS HR (95% CI): 1.05 (0.73-1.51)
  MRD1 OR (95% CI): 0.62 (0.37-1.04)
  OS HR (95% CI): 0.9 (0.58-1.41)
